“And” between values parts separate entries of the source, which are not always exact repeats. Equal values may be shown once. Read-outs that look alike come from different tables or passages of the source.
Experiments:
[1] = system: isolated mouse diaphragms poisoned by multiple BoNT serotypes; details: cited from earlier work
[2] = system: rats lethally challenged with 110 U/kg BoNT/A (2.5 LD50); details: rat, in vivo
[3] = system: rats lethally intoxicated with 2.5 LD50 BoNT/A; details: rat, in vivo
[4] = rat, in vivo; for behavioral seizure (%) / gait change (%) / max Racine score / mortality (%) / salivation (%): sc
[5] = system: BoNT/A-intoxicated mice; details: mouse, in vivo; cited from earlier work
[6] = system: diaphragm motor endplates of BoNT/A intoxicated rats; details: rat, in vivo
[7] = rat, in vivo
[8] = rat, in vivo; for behavioral seizure (%) / gait change (%) / max Racine score / mortality (%) / salivation (%): sc; remark: listed apart in the source
[9] = rat, in vivo, sc, 2 mg/kg

For `Nc1ccncc1N` [3,4-DAP, 3,4-diaminopyridine], the muscle paralysis [1] is given as “reverse muscle paralysis”, the “survival rate at the final injection” value [2] is given as 100% and the “time to reduction of toxic signs compared to vehicle” value [2] is given as at most 30 min. The “time after cessation of treatment at which toxic signs worsened” value ([2]; 2 mg/kg) was “approximately 1.5 h”, the “time of death after the final injection” value ([2]; 2 mg/kg) was 2 to 4 h and the “functional toxicity or loss of efficacy throughout the infusion period” value [3] was “no evidence of functional toxicity or loss of efficacy”. For the same compound, the “symptomatic rebound following cessation of infusion” value [3] was “without symptomatic rebound”, the “time by which all rats were deceased following cessation of infusion” value [3] was at most 12 h and the “time by which toxic signs resolved” value [3] was at most 14 days. The “time by which toxic signs stabilized” value [3] was at most 2 days, the “time to worsening of toxic signs following cessation of infusion” value [3] was 3 to 6 h and the “toxic signs compared to vehicle” value [3] was “improved”. The “physiological indicators of acute neurological toxicity” value ([4]; 2 mg/kg) was “did not elicit physiological indicators of acute neurological toxicity”, the “physiological indicators of acute neurological toxicity” value ([4]; 8 mg/kg) was “did not elicit physiological indicators of acute neurological toxicity” and the “behavioral seizure (%)” value ([4]; 1 mg/kg) was 0, 0%. The “gait change (%)” value ([4]; 1 mg/kg) was 0%, the “max Racine score” value ([4]; 1 mg/kg) was 0, 0 and the “mortality (%)” value ([4]; 1 mg/kg) was 0%. The “salivation (%)” value ([4]; 1 mg/kg) was 0%, the “behavioral seizure (%)” value ([4]; 2 mg/kg) was 0, 0% and the “gait change (%)” value ([4]; 2 mg/kg) was 0%. For the same compound, the “max Racine score” value ([4]; 2 mg/kg) was 0, 0, the “mortality (%)” value ([4]; 2 mg/kg) was 0% and the “salivation (%)” value ([4]; 2 mg/kg) was 0%. For the same compound, the “behavioral seizure (%)” value ([4]; 8 mg/kg) was 0, 0%, the “gait change (%)” value ([4]; 8 mg/kg) was 0% and the “max Racine score” value ([4]; 8 mg/kg) was 0, 0. The “mortality (%)” value ([4]; 8 mg/kg) was 0%, the “salivation (%)” value ([4]; 8 mg/kg) was 0% and the “behavioral seizure (%)” value ([4]; 16 mg/kg) was 0, 0%. The “gait change (%)” value ([4]; 16 mg/kg) was 50%, the “max Racine score” value ([4]; 16 mg/kg) was 0, 0 and the “mortality (%)” value ([4]; 16 mg/kg) was 0%. The “salivation (%)” value ([4]; 16 mg/kg) was 25%, the “respiratory and skeletal muscle weakness” value [5] was “reversed respiratory and skeletal muscle weakness” and the “respiratory function and survival” value [5] was “improve respiratory function and prolong survival”. The “mean EPP success rate” value ([6]; 0.98 mg/kg) was 75.4±3.5%, the “mean EPP success rate” value ([6]; 1.44 mg/kg) was 60.5±5.3% and 79.7±2.5% and the “relationship between infusion dose rate and CSS (serum)” value [7] was “linearly related to infusion dose”. The “behavioral signs of neurological toxicity during infusion” value [8] was “not observed”, the “behavioral seizure (%)” value ([8]; 0.36 mg/kg) was 0, 0% and the “gait change (%)” value ([8]; 0.36 mg/kg) was 0%. For the same compound, the “max Racine score” value ([8]; 0.36 mg/kg) was 0, 0, the “mortality (%)” value ([8]; 0.36 mg/kg) was 0% and the “salivation (%)” value ([8]; 0.36 mg/kg) was 0%. For the same compound, the “behavioral seizure (%)” value ([8]; 0.72 mg/kg) was 0, 0%, the “gait change (%)” value ([8]; 0.72 mg/kg) was 0% and the “max Racine score” value ([8]; 0.72 mg/kg) was 0, 0. For the same compound, the “mortality (%)” value ([8]; 0.72 mg/kg) was 0%, the “salivation (%)” value ([8]; 0.72 mg/kg) was 0% and the “behavioral seizure (%)” value ([8]; 1.44 mg/kg) was 0, 0%. The “gait change (%)” value ([8]; 1.44 mg/kg) was 0%, the “max Racine score” value ([8]; 1.44 mg/kg) was 0, 0 and the “mortality (%)” value ([8]; 1.44 mg/kg) was 0%. For the same compound, the “salivation (%)” value ([8]; 1.44 mg/kg) was 0%, the VO2 [9] was “transient increases” and the respiratory rate [9] was “transient increases”. The tidal volume [9] was “transient increases”.

Reference: patent US20230074200A1 (priority 2021, published 2023)
